PubChem BioAssay AID2060621 (Molecular Pharmacology Branch, DTP, NCI, 2025)

Test system: 324938-238-R-J1-PDC complex spheroids viability
Assay: Anticancer human tumor 324938-238-R-J1-PDC patient-derived bladder carcinoma cell line growth inhibition [CLK]
Settings: for IC50: curve of first compound; for viability, T/C: stronger effect = lower value
Procedure, shortened: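 Multi-cell-type spheroids combined patient-derived tumor cells with HUVEC endothelial cells and human mesenchymal stem cells. Paired agents were dosed in half-log steps down from about clinical Cmax, or from 10 microM where Cmax was unknown.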

[1] = second compound 0.0316 µM, first compound 0.0316 µM
[2] = second compound 0.0316 µM, first compound 0.1 µM
[3] = second compound 0.0316 µM, first compound 0.316 µM
[4] = second compound 0.0316 µM, first compound 1 µM
[5] = second compound 0.0316 µM, first compound 3.16 µM
[6] = second compound 0.0316 µM, first compound 10 µM
[7] = second compound 0.1 µM, first compound 0.0316 µM
[8] = second compound 0.1 µM, first compound 0.1 µM
[9] = second compound 0.1 µM, first compound 0.316 µM
[10] = second compound 0.1 µM, first compound 1 µM
[11] = second compound 0.1 µM, first compound 3.16 µM
[12] = second compound 0.1 µM, first compound 10 µM
[13] = second compound 0.316 µM, first compound 0.0316 µM
[14] = second compound 0.316 µM, first compound 0.1 µM
[15] = second compound 0.316 µM, first compound 0.316 µM
[16] = second compound 0.316 µM, first compound 1 µM
[17] = second compound 0.316 µM, first compound 3.16 µM
[18] = second compound 0.316 µM, first compound 10 µM
[19] = second compound 1 µM, first compound 0.0316 µM
[20] = second compound 1 µM, first compound 0.1 µM
[21] = second compound 1 µM, first compound 0.316 µM
[22] = second compound 1 µM, first compound 1 µM
[23] = second compound 1 µM, first compound 3.16 µM
[24] = second compound 1 µM, first compound 10 µM
[25] = second compound 3.16 µM, first compound 0.0316 µM
[26] = second compound 3.16 µM, first compound 0.1 µM
[27] = second compound 3.16 µM, first compound 0.316 µM
[28] = second compound 3.16 µM, first compound 1 µM
[29] = second compound 3.16 µM, first compound 3.16 µM
[30] = second compound 3.16 µM, first compound 10 µM
[31] = second compound 10 µM, first compound 0.0316 µM
[32] = second compound 10 µM, first compound 0.1 µM
[33] = second compound 10 µM, first compound 0.316 µM
[34] = second compound 10 µM, first compound 1 µM
[35] = second compound 10 µM, first compound 3.16 µM
[36] = second compound 10 µM, first compound 10 µM
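Further: viability read after seven days of drug exposure.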
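Wherever viability, T/C is given: 100% = DMSO vehicle control wells.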

## C#Cc1c(F)ccc2cc(O)cc(-c3ncc4c(N5CC6CCC(C5)N6)nc(OCC56CCCN5CC(F)C6)nc4c3F)c12 (stereo not drawn) + CNC(=O)c1ccc(Nc2nc(OC3CCCC3)c3c(-c4ccc5nc(C)oc5c4)c[nH]c3n2)c(OC)c1
Second compound 0.0316 µM
  IC50: 4700 nM
Second compound 0.1 µM
  IC50: < 31.6 nM
Second compound 0.316 µM
  IC50: < 31.6 nM
Second compound 1 µM
  IC50: < 31.6 nM
Second compound 3.16 µM
  IC50: < 31.6 nM
Second compound 10 µM
  IC50: < 31.6 nM
[1]
  viability, T/C: 73.7%
[2]
  viability, T/C: 87.6%
[3]
  viability, T/C: 71.8%
[4]
  viability, T/C: 69.6%
[5]
  viability, T/C: 57.8%
[6]
  viability, T/C: 35.7%
[7]
  viability, T/C: 29.6%
[8]
  viability, T/C: 29.6%
[9]
  viability, T/C: 21.5%
[10]
  viability, T/C: 22.8%
[11]
  viability, T/C: 20.5%
[12]
  viability, T/C: 18.6%
[13]
  viability, T/C: 20.1%
[14]
  viability, T/C: 18.9%
[15]
  viability, T/C: 14.5%
[16]
  viability, T/C: 16.9%
[17]
  viability, T/C: 12.7%
[18]
  viability, T/C: 14.8%
[19]
  viability, T/C: 14.8%
[20]
  viability, T/C: 14.9%
[21]
  viability, T/C: 13.8%
[22]
  viability, T/C: 15.1%
[23]
  viability, T/C: 14.8%
[24]
  viability, T/C: 15.6%
[25]
  viability, T/C: 13.5%
[26]
  viability, T/C: 16.4%
[27]
  viability, T/C: 14.8%
[28]
  viability, T/C: 16.8%
[29]
  viability, T/C: 12.4%
[30]
  viability, T/C: 12.4%
[31]
  viability, T/C: 15.9%
[32]
  viability, T/C: 18%
[33]
  viability, T/C: 16.2%
[34]
  viability, T/C: 16.8%
[35]
  viability, T/C: 16.2%
[36]
  viability, T/C: 11.5%

## C=C(F)C(=O)N1CCN(c2nc(OCC3CCCN3C)nc3c2CCN(c2cccc4cccc(Cl)c24)C3)CC1CC#N (stereo not drawn) + CNC(=O)c1ccc(Nc2nc(OC3CCCC3)c3c(-c4ccc5nc(C)oc5c4)c[nH]c3n2)c(OC)c1
Second compound 0.0316 µM
  IC50: 2360 nM
Second compound 0.1 µM
  IC50: < 31.6 nM
Second compound 0.316 µM
  IC50: < 31.6 nM
Second compound 1 µM
  IC50: < 31.6 nM
Second compound 3.16 µM
  IC50: < 31.6 nM
Second compound 10 µM
  IC50: < 31.6 nM
[1]
  viability, T/C: 89%
[2]
  viability, T/C: 82.6%
[3]
  viability, T/C: 83.2%
[4]
  viability, T/C: 75.7%
[5]
  viability, T/C: 41.3%
[6]
  viability, T/C: 0.18%
[7]
  viability, T/C: 23.1%
[8]
  viability, T/C: 24.9%
[9]
  viability, T/C: 25.2%
[10]
  viability, T/C: 23.1%
[11]
  viability, T/C: 24.9%
[12]
  viability, T/C: 0.17%
[13]
  viability, T/C: 16.2%
[14]
  viability, T/C: 16.2%
[15]
  viability, T/C: 17.7%
[16]
  viability, T/C: 20.2%
[17]
  viability, T/C: 16.7%
[18]
  viability, T/C: 0.14%
[19]
  viability, T/C: 18%
[20]
  viability, T/C: 17%
[21]
  viability, T/C: 15.3%
[22]
  viability, T/C: 17.6%
[23]
  viability, T/C: 16.4%
[24]
  viability, T/C: 0.16%
[25]
  viability, T/C: 17.5%
[26]
  viability, T/C: 15.3%
[27]
  viability, T/C: 14.6%
[28]
  viability, T/C: 16.4%
[29]
  viability, T/C: 14.5%
[30]
  viability, T/C: 0.17%
[31]
  viability, T/C: 16.7%
[32]
  viability, T/C: 16.8%
[33]
  viability, T/C: 15.5%
[34]
  viability, T/C: 18.6%
[35]
  viability, T/C: 14.3%
[36]
  viability, T/C: 0.3%

## C=CC(=O)N1CCN(c2nc(=O)n(-c3c(C)ccnc3C(C)C)c3nc(-c4c(O)cccc4F)c(F)cc23)C(C)C1 (stereo not drawn) + CNC(=O)c1ccc(Nc2nc(OC3CCCC3)c3c(-c4ccc5nc(C)oc5c4)c[nH]c3n2)c(OC)c1
Second compound 0.0316 µM
  IC50: > 10000 nM
Second compound 0.1 µM
  IC50: < 31.6 nM
Second compound 0.316 µM
  IC50: < 31.6 nM
Second compound 1 µM
  IC50: < 31.6 nM
Second compound 3.16 µM
  IC50: < 31.6 nM
Second compound 10 µM
  IC50: < 31.6 nM
[1]
  viability, T/C: 92.7%
[2]
  viability, T/C: 95.3%
[3]
  viability, T/C: 96.2%
[4]
  viability, T/C: 102%
[5]
  viability, T/C: 88.8%
[6]
  viability, T/C: 81.4%
[7]
  viability, T/C: 32.6%
[8]
  viability, T/C: 30.8%
[9]
  viability, T/C: 27.9%
[10]
  viability, T/C: 35.1%
[11]
  viability, T/C: 33.5%
[12]
  viability, T/C: 31.6%
[13]
  viability, T/C: 20.4%
[14]
  viability, T/C: 17.4%
[15]
  viability, T/C: 20.7%
[16]
  viability, T/C: 20.4%
[17]
  viability, T/C: 23.9%
[18]
  viability, T/C: 27.4%
[19]
  viability, T/C: 15.3%
[20]
  viability, T/C: 16.1%
[21]
  viability, T/C: 16.5%
[22]
  viability, T/C: 19.3%
[23]
  viability, T/C: 20.5%
[24]
  viability, T/C: 21.5%
[25]
  viability, T/C: 18.3%
[26]
  viability, T/C: 18.4%
[27]
  viability, T/C: 20.4%
[28]
  viability, T/C: 18.8%
[29]
  viability, T/C: 23.7%
[30]
  viability, T/C: 25.5%
[31]
  viability, T/C: 19.4%
[32]
  viability, T/C: 15.6%
[33]
  viability, T/C: 18.5%
[34]
  viability, T/C: 21%
[35]
  viability, T/C: 25.5%
[36]
  viability, T/C: 25.7%

## CC(CO)NC(=O)c1cc(-c2ccc(Cl)cc2)nn(-c2cnn(C)c2)c1=O (stereo not drawn) + CNC(=O)c1ccc(Nc2nc(OC3CCCC3)c3c(-c4ccc5nc(C)oc5c4)c[nH]c3n2)c(OC)c1
Second compound 0.0316 µM
  IC50: > 10000 nM
Second compound 0.1 µM
  IC50: < 31.6 nM
Second compound 0.316 µM
  IC50: < 31.6 nM
Second compound 1 µM
  IC50: < 31.6 nM
Second compound 3.16 µM
  IC50: < 31.6 nM
Second compound 10 µM
  IC50: < 31.6 nM
[1]
  viability, T/C: 82.2%
[2]
  viability, T/C: 90.3%
[3]
  viability, T/C: 89.1%
[4]
  viability, T/C: 81.1%
[5]
  viability, T/C: 66.1%
[6]
  viability, T/C: 50.6%
[7]
  viability, T/C: 28.9%
[8]
  viability, T/C: 33.2%
[9]
  viability, T/C: 34.6%
[10]
  viability, T/C: 35%
[11]
  viability, T/C: 29.4%
[12]
  viability, T/C: 28%
[13]
  viability, T/C: 19%
[14]
  viability, T/C: 19.3%
[15]
  viability, T/C: 21.6%
[16]
  viability, T/C: 18.7%
[17]
  viability, T/C: 19.1%
[18]
  viability, T/C: 21.1%
[19]
  viability, T/C: 16.4%
[20]
  viability, T/C: 16%
[21]
  viability, T/C: 15.9%
[22]
  viability, T/C: 16.9%
[23]
  viability, T/C: 18.4%
[24]
  viability, T/C: 18.6%
[25]
  viability, T/C: 15.9%
[26]
  viability, T/C: 15.5%
[27]
  viability, T/C: 15.1%
[28]
  viability, T/C: 16.2%
[29]
  viability, T/C: 18.1%
[30]
  viability, T/C: 17.6%
[31]
  viability, T/C: 17.3%
[32]
  viability, T/C: 16.3%
[33]
  viability, T/C: 15.2%
[34]
  viability, T/C: 16.5%
[35]
  viability, T/C: 17%
[36]
  viability, T/C: 15.6%
